From patent publication US12102633B2, “Spirolactone compounds” (Quixgen, Inc., priority 2017, dated 2024)
Entries after “also recorded” stand apart in the source; their conditions may differ. Blank lines part the entries; values can stand above or below the compound they belong to.

Tests used:
[1] = system: T1, Mouse ACC (ACC protein purified from liver); test: Mouse ACC enzymatic activity assay; assay type: biochemical; conditions: read-out: EA-CoA mACC IC50
T1 construct: ACC protein was purified by taking advantage of the biotinylation in the carboxylase domain
Procedure: ACC protein was purified by taking advantage of the biotinylation in the carboxylase domain. Male C57BL/6J mice (Jackson Laboratory) at 8-12 weeks of age were euthanized by using CO2 inhalation method and liver was immediately frozen on dry ice. To 100 mg liver was added 1 mL ice-cold tissue lysis buffer (20 mM Tris-HCl pH 7.5, 150 mM NaCl, 1 mM Na2EDTA, 1 mM EGTA, 1% Triton, 2.5 mM sodium pyrophosphate, 1 mM 3-glycerophosphate, 1 mM Na3VO4, 1 μg/mL leupeptin, 1 tablet of protease inhibitor cocktail (Roche) per 10 mL lysis buffer) followed by homogenization on ice with Power Gen 125 homogenizer (Fisher Scientific). After 30 min incubation on ice, tissue lysate was passed through a 10 mL syringe with 18½ G needle for 10 times to shear DNA. The lysate was then subject to 17.5%-35% saturated ammonium sulfate precipitation by adding 880 mg ammonium sulfate powder (Sigma) to 10 mL liver lysate in 10 min with stirring on ice. Sample was centrifuged at 14,000 rpm (Eppendorf) at 4° C. for 10 min and supernatant was saved for further precipitation by adding 880 mg ammonium sulfate powder to 10 ml supernatant in 10 min with stirring on ice. Sample was centrifuged at 14,000 rpm at 4° C. for 10 min. Supernatant was discarded and pellet was dissolved in 10 mL sample buffer (100 mM Tris-HCl, pH 7.5, 1 mM EDTA, 0.1 mM DTT, 0.5 M NaCl, and 5% glycerol). The sample was then added with 1 mL of Strep Mag beads slurry (Genscript) and rotated at 4° C. for 1 hour. Supernatant was discarded and beads were washed with sample buffer for 3 times. Protein was then eluted by adding 10 mL of 2 mM biotin (Promega) prepared in sample buffer. The eluate was then dialyzed at 4° C. for 1 hour by using Slide-A-Lyzer™ Dialysis Cassettes 10K MWCO (Thermo Fisher Scientific) against 3 changes of 200 mL dialysis buffer (50 mM HEPES, pH 7.5, 0.1 mM DTT, 1.0 mM EDTA, and 10% glycerol). Total protein concentration was then quantitated by using BCA protein assay kit (Pierce).
For ACC enzymatic activity assay, 1 μL serial diluted compounds prepared in DMSO in duplicate were mixed with 8 μL dialyzed sample at 37° C. for 10 min. Ninety one L of reaction buffer (50 mM HEPES pH 7.5, 10 mM MgCl2, 2.0 mM DTT, 0.5 mM acetyl-CoA, 4.0 mM ATP, 15 mM ^13C-NaHCO3, 0.75 mg/mL BSA, 0.5 mM sodium citrate) was added to the tube and mixed thoroughly. After incubation at 37° C. for 1 hour, 300 μl ice-cold quenching buffer (acetonitrile:methanol=1:1, 20 μM carbutamide as internal standard) was added to each tube and mixed well to terminate the reaction. Samples were centrifuged at 14,000 rpm for 10 min (Eppendorf) and supernatant was loaded onto LC-MS/MS for quantitation of malonyl-^13C-CoA (Gao et al., Journal of chromatography B, Analytical technologies in the biomedical and life sciences 853, 303-313 (2007)).
Shimadzu LC system was used for sample analysis consisting of system controller (Shimadzu CBM-20A), autosampler (Shimadzu SIL-20A), pump A and B (Shimadzu LC-20AD), column oven (Shimadzu CTO-20A), and analytical column (Phenomenex Gemini 5u C18 11A, 100×2 mm). LC was running at 200 μL/min in the binary gradient mode with mobile phase A (5 mM Ammonium Acetate and 5 mM DMBA in water (1,3-Dimethylbutylamine)) and B (methanol). The samples were analyzed on an AB Sciex QTrap4000 LC-MS/MS triple quadrupole mass spectrometer (Applied Biosystems). Malonyl-CoA and malonyl-13C-CoA were monitored in positive ion mode following MRM transitions at 854.2/347.1 and 855.1/246.1, respectively. The product and internal standard were coeluted to the mass spectrometer in 3 s with 50% H2O, 25% MeCN, 25% acetone, and 5 mM ammonium acetate. Ion chromatograms were integrated using the Analyst 1.5.2 software. Peak area ratios were compared against a standard curve and final cellular concentration of malonyl-CoA or production rate of malonyl-13C-CoA was calculated as pmoles/mg protein per minute.

[2] = system: 3T3-L1 adipocytes; test: Lipogenesis of 3T3-L1 adipocytes; assay type: cell-based; conditions: Mus musculus, TG readout, read-out: LG-3T3 IC50
Procedure: 3T3-L1 fibroblast cells (Zen-Bio) were grown in 96-well culture microplate (Corning) with growth media to around 90-100% confluency. Culture media was changed to differentiation media (growth media supplemented with 3-Isobutyl-1-Methylxanthine 500 μM, Dexamethasone 1 μM, insulin 10 μg/mL, and rosiglitazone 2 μM) plus serially diluted compounds prepared in DMSO (1:1000 dilution). After incubation for 2 days, media was changed to maintenance media (growth media supplemented with insulin 10 μg/mL) plus serially diluted compounds prepared in DMSO (1:1000 dilution) for around 1 week with media changed every 2 days. Upon completion of the treatment, culture media are discarded and 200 μL 0.01% SDS was added to each well and shaken for 1 hour to lyse the cells. Cell lysates were then transferred to 400 μL Folch's solution (chloroform: methanol=2:1) and mixed well. After centrifuge at 2,000 rpm for 20 min, 200 μL of the lower organic phase was transferred to a plate with 10 μL sample buffer (chloroform:Triton-100=3:1). Samples were blown dried under nitrogen and 200 μL triglyceride (TG) quantification reagent (Thermo Fisher Scientific) was added, mixed, and incubated at 37° C. for 30 min. TG concentration was determined by reading absorbance at 535 nm (Dynex MRX^e Magellan Biosciences) and calculated from standard curve.

[3] = system: Human sebocytes; test: Proliferation of human sebocytes; assay type: cell-based; conditions: 24 hours, MTT, read-out: AP-Sebo IC50
Procedure: Human sebocytes (Celprogen) and keratinocytes (ATCC) were grown in 96-well culture microplate (Coming) with growth media to around 50% confluency. Media was changed to growth media mixed with serially diluted compounds in DMSO (1:1000 dilution). After treatment for 24 hours, media was changed to 100 μL phenol red free DMEM and cell numbers were quantitated by using Vybrant® MTT Cell Proliferation Assay Kit (Molecular Probes). Ten μL of 12 mM MTT stock solution was added to each well and the microplate was incubated at 37° C. for 4 hours. Then 100 μL of the SDS-HCl solution was added to each well and mixed thoroughly using a pipette. The microplate was incubated at 37° C. for 4 hours in a cell culture incubator. The microplate was mixed again using a pipette and absorbance was read at 570 nm (Dynex MRX^e Magellan Biosciences). Effect of compounds on proliferation of human keratinocytes was calculated by % of DMSO vehicle control.

[4] = PK study in male C57 mouse for Examples 14 and 15; assay type: in vivo; conditions: for concentration at 0.5 h: 0.50 h
Procedure: Pharmacokinetic studies were carried out with male C57 mouse. Compounds (Example 14 and Example 15) were each formulated in 5% DMSO+10% Solutol HS 15+85% Saline, and dosed at 1 mpk for IV injection (5 mL/kg) and 10 mpk for oral gavage (10 mUkg). Plasma samples at various time points were quantitated with LC-MS. Data reported were average of three mice.
Tables 1 and 2 below show plasma concentrations (ng/mL) and PK parameters of Example 14 in male C57 mouse after 1 mpk IV injection and 10 mpk PO gavage, respectively. The plasma concentration (ng/mL) of the acid compound, Example 15, was also measured and reported below.
Tables 3 and 4 below show plasma concentrations (ng/mL) and PK parameters of Example 15 in male C57 mouse after 1 mpk IV injection and 10 mpk PO gavage, respectively.

[5] = system: liver triglycerides (TG) in C57BL/6J mice; test: Chronic treatment for reducing liver triglycerides in C57BL/6J mice; assay type: in vivo, mouse; conditions: male C57BL/6J mice; 30 mg per kilogram body weight in PEG400, oral gavage once per day for 2 weeks; FIG. 1, vs vehicle
Procedure: Male C57BL/6J mice (Jackson Laboratory) at around 9 weeks of age were treated with vehicle (0.5% methylcellulose or PEG400) or Example 14 (30 mg per kilogram body weight, dosing solution prepared in PEG400) and Example 20 (20 mg per kilogram body weight, dosing solution prepared in 0.5% methylcellulose) by oral gavage at ˜9:00 am, once per day for 2 weeks. Concentrations of Example 14 and Example 20 were 15 mg/ml and 2 mg/ml, respectively. The dosing volumes of Example 14 and Example 20 were 2 ml per kilogram body weight and 10 ml per kilogram body weight, respectively. After 14-day treatment, animals were euthanized in CO2 at 2 hours post dose and liver was frozen and kept on dry ice. Liver TG was measured by extracting lipids with chloroform:methanol 2:1 (v/v) followed by quantitation with Infinity™ Triglycerides Reagent (Thermo Scientific).

[6] = male, C57, mouse, plasma, iv, 1 mg/kg, Example 14 dosed 1 mpk IV, analyte = labelled compound
[7] = male, C57, mouse, plasma, po, 10 mg/kg, Example 14 dosed 10 mpk PO gavage, analyte = labelled compound
[8] = plasma, 1 mg/kg, Example 14 dosed 1 mpk IV

IC50 [1]: 3.4 nM
Structure (SMILES): CCc1ccc2c(c1)C(=O)OC1(CCN(C(=O)c3cc(OC)c4cccc(OC)c4c3)CC1)C2 [Example 3, 1′-(4,8-dimethoxy-2-naphthoyl)-7-ethylspiro[isochroman-3,4′-piperidin]-1-one]
IC50 [2]: 1.4 nM
IC50 [3]: 44.4 nM

IC50 [1]: 11.3 nM
Structure (SMILES): CCc1ccc2c(c1)C(=O)OC1(CCN(C(=O)c3cc(OC)c4cccc(OC)c4n3)CC1)C2 [Example 4, 1′-(4,8-dimethoxyquinoline-2-carbonyl)-7-ethylspiro[isochroman-3,4′-piperidin]-1-one]
IC50 [2]: 27.7 nM
IC50 [3]: 148 nM

Plasma Concentration, Mean ([4]; Example 14 dosed 1 mpk IV, 8.00 h, analyte = labelled compound): BLQ
Plasma Concentration, Mean ([4]; Example 14 dosed 1 mpk IV, 24.00 h, analyte = labelled compound): BLQ
F ([4]; Example 14 dosed 10 mpk PO gavage): 88%
Plasma Concentration, Mean ([4]; Example 14 dosed 10 mpk PO gavage, 24.00 h, analyte = labelled compound): BLQ
MRT ([4]; male, C57, mouse, plasma, iv, 1 mg/kg, Example 14 dosed 1 mpk IV): 24.6 min
concentration at 0.08 h ([4]; male, C57, mouse, plasma, iv, 1 mg/kg, Example 14 dosed 1 mpk IV, 0.08 h, analyte = labelled compound): 1880 ng/mL
concentration at 0.25 h [4, 6]: 1080 ng/mL
concentration at 0.5 h [4, 6]: 521 ng/mL
concentration at 1 h [4, 6]: 199 ng/mL
concentration at 2 h [4, 6]: 30 ng/mL
concentration at 4 h [4, 6]: 4.4 ng/mL
concentration at 0.25 h [4, 7]: 3660 ng/mL
concentration at 0.5 h [4, 7]: 5970 ng/mL
concentration at 1 h [4, 7]: 3160 ng/mL
concentration at 2 h [4, 7]: 1010 ng/mL
concentration at 4 h [4, 7]: 345 ng/mL
concentration at 8 h ([4]; male, C57, mouse, plasma, po, 10 mg/kg, Example 14 dosed 10 mpk PO gavage, 8.00 h, analyte = labelled compound): 125 ng/mL
Cmax [4, 7]: 6330 ng/mL
MRT [4, 7]: 96 min
Tmax [4, 7]: 25.2 min
Vd [4, 8]: 0.49 L/kg
clearance [4, 8]: 18.5 mL/min/kg
half-life [4, 8]: 19.2 min
Structure (SMILES): COC(=O)c1cncc(-c2ccc3c(c2)C(=O)OC2(CCN(C(=O)c4cc(OC)c5cccc(OC)c5n4)CC2)C3)c1 [Example 14, methyl 5-(1′-(4,8-dimethoxyquinoline-2-carbonyl)-1-oxospiro[isochroman-3,4′-piperidin]-7-yl)nicotinate]
Liver TG [5]: reduced liver triglycerides; also recorded: reduced liver TG
